We go through seven molecules from PubChem BioAssay (NCI).

Test systems include MOLT-4 leukemia; SK-OV-3 ovarian; SW-620 colon; CAKI-1 renal; NCI-H226 lung; HOP-92 NSCLC; OVCAR-8 ovarian; MDA-MB-435.
Common to all, as to assay: NCI tumour cell line growth inhibition, 48 h

Several values for one entry are separate records, joined by “and”; a condition that tells them apart may be missing. Identical values can stand only once.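 Interpolation was linear, between the two tested concentrations surrounding the appropriate level; five concentrations were tested over 48 hours in 96-well plates. GI50 marks 50% less growth. TGI marks complete inhibition of growth.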

As to `CC(=O)Oc1cc2c(OC(C)=O)c(-c3c(C)cc4c(C(C)C)c(OC(C)=O)c(OC(C)=O)cc4c3OC(C)=O)c(C)cc2c(C(C)C)c1OC(C)=O`, the GI50 in the test with MOLT-4 leukemia was 4.48 µM and 23.6 µM and 6.76 µM; in the test on SK-OV-3 ovarian, 10.4 µM and 25.3 µM; in the test on SW-620 colon, 19.6 µM and 4.74 µM and 9.38 µM; in the test with CAKI-1 renal it was 7.61 µM and 6.16 µM and 11.5 µM; in the test on NCI-H226 lung, 1.14 µM and 4.72 µM and 8.69 µM; with HOP-92 NSCLC, 1.27 µM and 7.69 µM and 5.33 µM. Further, the GI50 is 6.44 µM and 5.89 µM and 11.8 µM in the test with OVCAR-8 ovarian; 8.13 µM and 6.8 µM and 10.1 µM with MDA-MB-435. For the same molecule, the TGI in the test with MOLT-4 leukemia is 14.9 µM and > 100 µM and 21.2 µM; in the test on SK-OV-3 ovarian, > 39.3 µM and 34.1 µM and 55.8 µM; with SW-620 colon it was 43.7 µM and 9.61 µM and 22.5 µM; with CAKI-1 renal, 21.9 µM and 13.1 µM and 30.9 µM; in the test on NCI-H226 lung, 2.58 µM and 11.1 µM and 20.9 µM; in the test with HOP-92 NSCLC it was 4.11 µM and 18 µM and 16.7 µM. The TGI in the test with OVCAR-8 ovarian was 19.1 µM and 17.6 µM and > 57.6 µM; with MDA-MB-435, 26.8 µM and 14.1 µM and 22.7 µM.
With `COc1ccc(OC)c(-c2cc(=O)c3c(OC)c(OC)c(OC)c(OC)c3o2)c1`, the TGI with MOLT-4 leukemia is 63.2 µM; in the test on SK-OV-3 ovarian, 98.7 µM; with SW-620 colon, more than 100 µM; in the test with CAKI-1 renal, more than 100 µM; with NCI-H226 lung, 77.8 µM; with HOP-92 NSCLC it was 57.7 µM. The TGI in the test on OVCAR-8 ovarian and with MDA-MB-435 was more than 100 µM throughout.
As for `O=S(=O)(Nc1cc(Cl)ccc1Cl)c1ccc(-c2cnc(C3CC3)o2)cc1`, the GI50 with MOLT-4 leukemia is 1.64 µM; in the test on SK-OV-3 ovarian, 5.3 µM; with SW-620 colon, 0.814 µM; in the test on CAKI-1 renal it was 0.647 µM; with NCI-H226 lung it was 4.55 µM; with HOP-92 NSCLC, 1.21 µM. In addition, the GI50 in the test on OVCAR-8 ovarian is 3.95 µM; in the test on MDA-MB-435, 0.346 µM. The TGI is more than 100 µM with MOLT-4 leukemia; 85.5 µM in the test with SK-OV-3 ovarian; more than 100 µM in the test with SW-620 colon; 52.1 µM in the test on CAKI-1 renal; 38.6 µM with NCI-H226 lung; 8.42 µM in the test with HOP-92 NSCLC. The TGI with OVCAR-8 ovarian was more than 100 µM; in the test with MDA-MB-435 it was 1.49 µM.
In the case of `CCN(CC)CCCC(C)N=c1cc(Nc2cc(=NC(C)CCCN(CC)CC)c3cc(OC)ccc3o2)oc2ccc(OC)cc12` (configuration not stated), the GI50 in the test with MOLT-4 leukemia was 0.725 µM; in the test with SK-OV-3 ovarian, 1.31 µM; in the test on SW-620 colon, 0.672 µM; in the test with CAKI-1 renal it was 1.34 µM; in the test with NCI-H226 lung, 0.58 µM; in the test with HOP-92 NSCLC, 0.513 µM. Further, the GI50 was 0.441 µM in the test on OVCAR-8 ovarian and 0.871 µM with MDA-MB-435. For the same molecule, the TGI with MOLT-4 leukemia was found to be 2.93 µM; in the test on SK-OV-3 ovarian, 4.13 µM; in the test on SW-620 colon, 3.04 µM; with CAKI-1 renal it was 5.75 µM; in the test on NCI-H226 lung, 2.37 µM; in the test on HOP-92 NSCLC it was 3.15 µM. Further, the TGI is 3.78 µM in the test with OVCAR-8 ovarian and 1.68 µM in the test on MDA-MB-435.
As to `CN(C)CCOC(c1ccccc1)c1ccccc1`, the TGI is more than 100 µM in the test on MOLT-4 leukemia; 54.8 µM in the test with SK-OV-3 ovarian; 51.8 µM and > 100 µM in the test with SW-620 colon; 52.6 µM and > 100 µM with CAKI-1 renal; 56.4 µM and > 100 µM in the test with NCI-H226 lung; 85.7 µM in the test on HOP-92 NSCLC. The TGI with OVCAR-8 ovarian was 22.7 µM and > 100 µM; with MDA-MB-435 it was 44.1 µM and > 100 µM. Further, the GI50 in the test on SK-OV-3 ovarian is 40.6 µM; in the test on SW-620 colon, 35.1 µM; in the test with CAKI-1 renal, 38.2 µM; with NCI-H226 lung it was 39.7 µM; in the test with OVCAR-8 ovarian, 14.8 µM; with MDA-MB-435, 24.6 µM.
In the case of `O=C(NO)c1ccc(Cn2c(=O)n(-c3ccccc3F)c(=O)c3ccccc32)cc1`, the GI50 in the test on MOLT-4 leukemia was 2.34 µM; with SK-OV-3 ovarian, 1.96 µM; in the test on SW-620 colon it was 1.59 µM; in the test with CAKI-1 renal, 2.25 µM; with NCI-H226 lung, 1.43 µM; in the test on HOP-92 NSCLC it was 1.77 µM. For the same molecule, the GI50 in the test with OVCAR-8 ovarian is 1.05 µM; with MDA-MB-435, 1.55 µM. Moreover, the TGI with MOLT-4 leukemia was more than 100 µM; in the test with SK-OV-3 ovarian, 4.87 µM; with SW-620 colon, 4.37 µM; in the test with CAKI-1 renal, 7.15 µM; in the test with NCI-H226 lung it was 3.27 µM; in the test with HOP-92 NSCLC it was 4.75 µM. For the same molecule, the results for the TGI in the test with OVCAR-8 ovarian and in the test with MDA-MB-435 were 5.11 µM and 3.26 µM, respectively.
On to `CCCCN(CCCC)CCCn1c(=O)c2c3ccccc3n(C)c2n2nnc(-c3ccccc3)c12`, for which the GI50 was 13.9 µM with MOLT-4 leukemia; 30.3 µM in the test with SK-OV-3 ovarian; 26.5 µM in the test on SW-620 colon; 49.8 µM with CAKI-1 renal; 57 µM in the test with NCI-H226 lung; 18.5 µM with HOP-92 NSCLC. The results for the GI50 with OVCAR-8 ovarian and in the test on MDA-MB-435 were 39.7 µM and 39 µM, respectively. Further, the TGI is more than 100 µM with MOLT-4 leukemia; more than 100 µM with SK-OV-3 ovarian; more than 100 µM in the test with SW-620 colon; more than 100 µM in the test on CAKI-1 renal; more than 100 µM with NCI-H226 lung; 44.7 µM in the test on HOP-92 NSCLC. Also, the TGI in the test with OVCAR-8 ovarian and in the test on MDA-MB-435 was more than 100 µM each time.
